Assay [1] deals with T1, hOAT (human ornithine δ-aminotransferase) (Homo sapiens, UniProt P04181).
T1 construct: gene OAT; untagged, pET43a, E. coli BL21(DE3)pLysS; DEAE and Superdex 200; tetramer in equilibrium with dimer, dimer is the functional unit
T1 sequence (P04181 26-439): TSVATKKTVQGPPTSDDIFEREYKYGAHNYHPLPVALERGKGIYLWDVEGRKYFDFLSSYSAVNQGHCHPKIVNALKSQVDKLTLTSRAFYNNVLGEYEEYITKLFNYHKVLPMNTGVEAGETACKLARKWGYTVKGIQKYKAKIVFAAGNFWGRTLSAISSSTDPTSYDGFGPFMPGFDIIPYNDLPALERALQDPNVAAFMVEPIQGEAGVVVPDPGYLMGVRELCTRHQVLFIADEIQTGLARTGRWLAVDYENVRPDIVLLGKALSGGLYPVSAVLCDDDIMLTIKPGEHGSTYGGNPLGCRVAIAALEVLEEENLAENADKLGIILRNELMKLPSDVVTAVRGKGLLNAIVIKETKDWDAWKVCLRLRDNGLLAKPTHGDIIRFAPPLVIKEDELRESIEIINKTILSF
Nature of the assay: thermal denaturation followed by CD at […] nm, holo versus apo. It is filed as binding. Conditions: 50 mM Hepes, pH 7.4, 0.5 M NaCl; tetrameric form; covalent (internal aldimine with Lys292).

The target of assay [2] is T2, hOAT (human ornithine δ-aminotransferase) (Homo sapiens, UniProt P04181, R217A).
T2 construct: gene OAT; untagged, pET43a, E. coli BL21(DE3)pLysS; DEAE and Superdex 200; tetramer in equilibrium with dimer, dimer is the functional unit
T2 sequence (P04181 26-439 R217A): T1 sequence (P04181 26-439) with R192A
The experiment in a line: quenching of intrinsic fluorescence of apoenzyme at […] nm. Conditions: read-out: KD(PLP). The class given is binding.

Positions count from the first letter of the chain named.

The term Kd denotes a measure of binding affinity in units of concentration. For `Cc1ncc(COP(=O)(O)O)c(C=O)c1O` [PLP], in assay [1], the “dTm (apparent Tm, holo minus apo)” value is ~ 21 °C. Moreover, the Kd in assay [2] is 0.28 ± 0.3 µM.

The record behind these values is article PMC5432616, “Oligomeric State and Thermal Stability of Apo- and Holo- Human Ornithine δ-Aminotransferase” (The Protein Journal, 2017).
